Reference: patent publication US7598392B2, “2-amido-4-phenylthiazole derivatives, the preparation and the therapeutic use thereof” (sanofi-aventis, priority 2004, dated 2009)

Experiments:
human CCR2b receptor = biological target: T1, human CCR2b receptor (Homo sapiens, UniProt P41597); assay: Inhibitory activity on cells expressing the human CCR2b receptor; type: cell-based
T1 sequence (P41597 1-360 isoform P41597-2): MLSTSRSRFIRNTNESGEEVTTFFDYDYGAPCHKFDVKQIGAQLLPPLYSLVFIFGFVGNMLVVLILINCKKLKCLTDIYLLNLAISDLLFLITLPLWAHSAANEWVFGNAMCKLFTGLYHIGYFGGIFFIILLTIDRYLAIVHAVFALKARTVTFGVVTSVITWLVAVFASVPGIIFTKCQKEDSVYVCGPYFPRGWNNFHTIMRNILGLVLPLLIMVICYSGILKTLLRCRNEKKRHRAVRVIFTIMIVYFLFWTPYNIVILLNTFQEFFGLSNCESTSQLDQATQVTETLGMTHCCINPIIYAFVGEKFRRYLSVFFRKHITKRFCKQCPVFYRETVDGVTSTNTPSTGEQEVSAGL
Description: The inhibitory activity of the compounds according to the invention on cells expressing the human CCR2b receptor was measured.

human THP-1 monocytes = assay: Inhibition of chemotaxis on human THP-1 monocytes; type: cell-based
Description: The inhibition of chemotaxis was also measured on human THP-1 monocytes (sold by DSMZ—Germany) using a technique adapted from that described by A. Albini et al., Cancer Res., 1987, 47, 3239-3245. Under these conditions, hMCP-1 has an IC50 of 6 nM.

| Compound | IC50 (human CCR2b receptor) [nM] | IC50 (human THP-1 monocytes) [nM] |
| --- | --- | --- |
| COc1ccc(C2CCCCC2)cc1-c1csc(NC(=O)C2CCCN(C(=O)c3cccc(C#N)c3)C2)n1 (stereo not drawn) [Compound 20] | 25 | – |
| hMCP-1: "hMCP-1 (human monocyte chemotactic protein)", "belongs to the group or CC chemokines and which is a natural agonist of the CCR2b receptor" | 0.57 | 6 |
| CCCOc1ccc(OC)c(-c2csc(NC(=O)C3CCCN(C(=O)c4cc([N+](=O)[O-])cc([N+](=O)[O-])c4)C3)n2)c1 (stereo not drawn) [Compound 1] | 290 | – |
| COc1ccc(C2CCCCC2)cc1-c1csc(NC(=O)C2CCCN(C(=O)c3ccncn3)C2)n1 (stereo not drawn) [Compound 107, 1-(pyrimidine-4-carbonyl)piperidine-3-carboxylic acid [4-(5-cyclohexyl-2-methoxyphenyl)thiazol-2-yl]amide] | 5 | – |
| COc1ccc(C2CCCCC2)cc1-c1csc(NC(=O)C2CCCN(C(=O)c3ccoc3C)C2)n1 (stereo not drawn) [Compound 31] | 44 | – |
